We go through 2 compounds from patent US20080261929A1, “COMBINATION OF PROGESTERONE-RECEPTOR ANTAGONIST TOGETHER WITH AN AROMATASE INHIBITOR FOR USE IN BRCA MEDIATED DISEASES” (priority 2007, published 2008).

Like-named read-outs stand apart in the source and are kept apart here.

In data set [1] the target is T1, progesterone receptor (Homo sapiens, UniProt P06401).
T1 sequence (P06401 1-933): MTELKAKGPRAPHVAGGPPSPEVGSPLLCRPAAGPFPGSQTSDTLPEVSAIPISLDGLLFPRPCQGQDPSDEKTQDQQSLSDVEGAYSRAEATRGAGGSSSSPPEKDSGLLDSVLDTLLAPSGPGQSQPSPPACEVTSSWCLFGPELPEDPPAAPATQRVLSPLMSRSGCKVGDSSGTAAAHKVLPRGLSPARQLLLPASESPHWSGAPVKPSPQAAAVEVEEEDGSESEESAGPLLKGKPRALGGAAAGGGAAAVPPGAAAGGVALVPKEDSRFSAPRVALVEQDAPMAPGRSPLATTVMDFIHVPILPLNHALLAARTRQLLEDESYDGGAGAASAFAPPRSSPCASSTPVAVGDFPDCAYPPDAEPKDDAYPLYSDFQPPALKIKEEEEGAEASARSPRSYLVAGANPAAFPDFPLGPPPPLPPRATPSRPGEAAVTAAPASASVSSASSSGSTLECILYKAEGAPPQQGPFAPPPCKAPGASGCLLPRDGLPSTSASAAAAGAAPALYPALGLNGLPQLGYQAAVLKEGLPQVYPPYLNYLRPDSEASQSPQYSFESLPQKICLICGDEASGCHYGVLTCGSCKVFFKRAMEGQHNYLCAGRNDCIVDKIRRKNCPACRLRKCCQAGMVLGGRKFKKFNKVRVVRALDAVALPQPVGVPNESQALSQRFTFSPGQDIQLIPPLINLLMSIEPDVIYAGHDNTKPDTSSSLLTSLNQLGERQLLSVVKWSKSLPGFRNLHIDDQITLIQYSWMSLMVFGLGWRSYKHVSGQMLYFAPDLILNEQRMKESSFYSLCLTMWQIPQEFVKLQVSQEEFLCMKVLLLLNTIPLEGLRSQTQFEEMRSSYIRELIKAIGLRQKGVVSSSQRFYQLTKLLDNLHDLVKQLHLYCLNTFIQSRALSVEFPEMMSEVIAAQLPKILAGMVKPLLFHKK
Description: Progesterone receptor protein expression/stability after siRNA knock down of BRCA1 (Example 1). Format: cell-based. As to the method: MCF-7 and T47D mammary cells were stabely transfected with the aromatse gene. These cells grow with androstenedione stimulus. These cells were treated with siRNA knocking down the BRCA1 and BRCA2 gene.
In a second step cells were stimulated either with progesterone and/or with androstenedione. […] The effects on progesterone receptor protein expression were further investigated.

Data set [2] has as its target T1, progesterone receptor. Description: Progesterone receptor protein expression/stability after knock down of BRCA1 (Example 3). The source says:
MCF-7 and T47D mammary cells stabely transfected with the aromatse gene. These cells grow with androstenedione stimulus in vivo. These cells were stabely transfected with shRNA knocking down the BRCA1 and BRCA2 gene. Cell growth in vivo in comparison to untransfected and mock transfected cells was compared. In a second step cells were implanted in immunodeficient nude mice and stimulated either with progesterone and/or with androstenedione. […] The effects on progesterone receptor protein expression were further investigated.

The subject of another data set is tumor cells. Description: Apoptosis of tumor cells.
Data set [3] deals with T1, progesterone receptor. The conditions noted are these: cited from earlier work.
In a further data set the test system is mammary tumors. The settings on record: mice with rodent BRCA1- or BRCA2 inactivated in mammary glands; Poole et al., Science 2006; cited from earlier work.
The conditions of data set [4]: administered orally; cited from earlier work.

As for `CC(=O)c1ccc([C@H]2C[C@@]3(C)[C@@H](CC[C@@]3(O)C(F)(F)C(F)(F)F)[C@@H]3CCC4=CC(=O)CCC4=C32)cc1` [11β-(4-acetylphenyl)-17β-hydroxy-17α-(1,1,2,2,2-pentafluoroethyl)-estra-4,9-dien-3-one], the “Effect on increased stability of progesterone receptor after BRCA1 knock down” value at progesterone receptor [1] and at progesterone receptor [2] was “could be antagonized” each time. The “Apoptosis of tumor cells” value in the data set with tumor cells is reported as “increased apoptosis of tumor cells”. Moreover, the Antiprogestagenic activity entry at progesterone receptor [3] (Fuhrmann et al., J. Med. Chem. 2000) was “high antiprogestagenic activity”. For the same compound, the “Other endocrinological (side) effects, e.g. androgen, estrogen or antiglucocorticoid activity” value on progesterone receptor [3] is listed as “only very weak or no endocrine side effects”; on progesterone receptor [3] (listed as ZK230211) it was “little or no other endocrinological effects”.
In the case of `CC#C[C@]1(O)CC[C@H]2[C@@H]3CCC4=CC(=O)CCC4=C3[C@@H](c3ccc(N(C)C)cc3)C[C@@]21C` [mifepristone], in the data set with mammary tumors, the “Development of mammary tumors” value is on record as “blocks the development of mammary tumors”. In data set [4], the Bioavailability result is recorded as “poor bioavailability”.
